Measurements: ChEMBL document CHEMBL4308841, “Synthesis, in vitro antiproliferative activity, and kinase inhibitory effects of pyrazole-containing diarylureas and diarylamides” (Eur J Med Chem, 2018)

Key:
SF-295 = experiment: Growth inhibition of human SF295 cells assessed as cell growth at 0.01 uM incubated for 48 hrs by sulforhodamine B assay relative to control; type: functional; conditions: SF-295, 48 h, read-out: Activity
OVCAR-4 = experiment: Growth inhibition of human OVCAR4 cells assessed as cell growth at 1 uM incubated for 48 hrs by sulforhodamine B assay relative to control; type: functional; conditions: OVCAR-4, 48 h, read-out: Activity
CCRF-CEM = experiment: Growth inhibition of human CCRF-CEM cells assessed as cell growth at 0.01 uM incubated for 48 hrs by sulforhodamine B assay relative to control; type: functional; conditions: read-out: Activity
MCF7 [1] = experiment: Growth inhibition of human MCF7 cells assessed as cell growth at 0.01 uM incubated for 48 hrs by sulforhodamine B assay relative to control; type: functional; conditions: MCF7, 48 h, read-out: Activity
SW-620 = experiment: Growth inhibition of human SW620 cells assessed as cell growth at 0.1 uM incubated for 48 hrs by sulforhodamine B assay relative to control; type: functional; conditions: SW-620, 48 h, read-out: Activity
RXF 393 [2] = experiment: Growth inhibition of human RXF393 cells assessed as cell growth at 100 uM incubated for 48 hrs by sulforhodamine B assay relative to control; type: functional; conditions: RXF 393, 48 h, read-out: Activity
UO-31 = experiment: Growth inhibition of human UO31 cells assessed as cell growth at 1 uM incubated for 48 hrs by sulforhodamine B assay relative to control; type: functional; conditions: UO-31, 48 h, read-out: Activity
MDA-MB-435 = experiment: Growth inhibition of human MDA-MB-435 cells assessed as cell growth at 0.1 uM incubated for 48 hrs by sulforhodamine B assay relative to control; type: functional; conditions: MDA-MB-435, 48 h, read-out: Activity
COLO 205 = experiment: Growth inhibition of human COLO205 cells assessed as cell growth at 100 uM incubated for 48 hrs by sulforhodamine B assay relative to control; type: functional; conditions: COLO 205, 48 h, read-out: Activity
LOX IMVI = experiment: Growth inhibition of human LOXIMVI cells assessed as cell growth at 100 uM incubated for 48 hrs by sulforhodamine B assay relative to control; type: functional; conditions: read-out: Activity
OVCAR-5 = experiment: Growth inhibition of human OVCAR5 cells assessed as cell growth at 0.01 uM incubated for 48 hrs by sulforhodamine B assay relative to control; type: functional; conditions: OVCAR-5, 48 h, read-out: Activity
OVCAR-3 [3] = experiment: Growth inhibition of human OVCAR3 cells assessed as cell growth at 0.1 uM incubated for 48 hrs by sulforhodamine B assay relative to control; type: functional; conditions: OVCAR-3, 48 h, read-out: Activity
A498 = experiment: Growth inhibition of human A498 cells assessed as cell growth at 100 uM incubated for 48 hrs by sulforhodamine B assay relative to control; type: functional; conditions: A498, 48 h, read-out: Activity
T47D [4] = experiment: Growth inhibition of human T47D cells assessed as cell growth at 100 uM incubated for 48 hrs by sulforhodamine B assay relative to control; type: functional; conditions: read-out: Activity
OVCAR-3 [5] = experiment: Growth inhibition of human OVCAR3 cells assessed as cell growth at 1 uM incubated for 48 hrs by sulforhodamine B assay relative to control; type: functional; conditions: OVCAR-3, 48 h, read-out: Activity
Hs-578T = experiment: Growth inhibition of human Hs578T cells assessed as cell growth at 1 uM incubated for 48 hrs by sulforhodamine B assay relative to control; type: functional; conditions: read-out: Activity
SN12C = experiment: Growth inhibition of human SN12C cells assessed as cell growth at 1 uM incubated for 48 hrs by sulforhodamine B assay relative to control; type: functional; conditions: read-out: Activity
KM12 [6] = experiment: Growth inhibition of human KM12 cells assessed as cell growth at 0.01 uM incubated for 48 hrs by sulforhodamine B assay relative to control; type: functional; conditions: KM12, 48 h, read-out: Activity
SF-539 = experiment: Growth inhibition of human SF539 cells incubated for 48 hrs by sulforhodamine B assay; type: functional, cell-based; conditions: SF-539, 48 h
SF-268 = experiment: Growth inhibition of human SF268 cells assessed as cell growth at 0.1 uM incubated for 48 hrs by sulforhodamine B assay relative to control; type: functional; conditions: SF-268, 48 h, read-out: Activity
RXF 393 [7] = experiment: Growth inhibition of human RXF393 cells assessed as cell growth at 0.1 uM incubated for 48 hrs by sulforhodamine B assay relative to control; type: functional; conditions: RXF 393, 48 h, read-out: Activity
NCI-H226 = experiment: Growth inhibition of human NCI-H226 cells assessed as cell growth at 0.1 uM incubated for 48 hrs by sulforhodamine B assay relative to control; type: functional; conditions: NCI-H226, 48 h, read-out: Activity
K562 = experiment: Growth inhibition of human K562 cells assessed as cell growth at 100 uM incubated for 48 hrs by sulforhodamine B assay relative to control; type: functional; conditions: K562, 48 h, read-out: Activity
T47D [8] = experiment: Growth inhibition of human T47D cells assessed as cell growth at 0.1 uM incubated for 48 hrs by sulforhodamine B assay relative to control; type: functional; conditions: read-out: Activity
KM12 [9] = experiment: Growth inhibition of human KM12 cells assessed as cell growth at 100 uM incubated for 48 hrs by sulforhodamine B assay relative to control; type: functional; conditions: KM12, 48 h, read-out: Activity
MCF7 [10] = experiment: Growth inhibition of human MCF7 cells incubated for 48 hrs by sulforhodamine B assay; type: functional, cell-based; conditions: MCF7, 48 h
RPMI-8226 = experiment: Growth inhibition of human RPMI8226 cells assessed as cell growth at 0.1 uM incubated for 48 hrs by sulforhodamine B assay relative to control; type: functional; conditions: RPMI-8226, 48 h, read-out: Activity
BT-549 = experiment: Growth inhibition of human BT549 cells assessed as cell growth at 100 uM incubated for 48 hrs by sulforhodamine B assay relative to control; type: functional; conditions: BT-549, 48 h, read-out: Activity
HCT-15 [11] = experiment: Growth inhibition of human HCT15 cells assessed as cell growth at 1 uM incubated for 48 hrs by sulforhodamine B assay relative to control; type: functional; conditions: HCT-15, 48 h, read-out: Activity
786-0 = experiment: Growth inhibition of human 786-0 cells assessed as cell growth at 1 uM incubated for 48 hrs by sulforhodamine B assay relative to control; type: functional; conditions: 786-0, 48 h, read-out: Activity
IGROV-1 = experiment: Growth inhibition of human IGROV1 cells assessed as cell growth at 1 uM incubated for 48 hrs by sulforhodamine B assay relative to control; type: functional; conditions: IGROV-1, 48 h, read-out: Activity
HCT-15 [12] = experiment: Growth inhibition of human HCT15 cells incubated for 48 hrs by sulforhodamine B assay; type: functional, cell-based; conditions: HCT-15, 48 h
[13] = read-out: LC50 (the source's name)
[14] = read-out: pLC50 (the source's name) (converted)

O=C(Nc1cccc(-n2cc(-c3ccncc3)c(-c3cc(O)cc(Cl)c3)n2)c1)c1ccc(N2CCOCC2)c(C(F)(F)F)c1
growth at 0.01 µM (SF-295): 97%
growth at 1 µM (OVCAR-4): 99%
growth at 0.01 µM (CCRF-CEM): 98%
growth at 0.01 µM (MCF7 [1]): 91%
growth at 0.1 µM (SW-620): 105%
growth at 100 µM (RXF 393 [2]): -39%
growth at 1 µM (UO-31): 57%
growth at 0.1 µM (MDA-MB-435): 69%
growth at 100 µM (COLO 205): -17%
growth at 100 µM (LOX IMVI): -45%
growth at 0.01 µM (OVCAR-5): 52%
growth at 0.1 µM (OVCAR-3 [3]): 113%
growth at 100 µM (A498): -12%
growth at 100 µM (T47D [4]): 7%
growth at 1 µM (OVCAR-3 [5]): 99%
growth at 1 µM (Hs-578T): 59%
growth at 1 µM (SN12C): 58%
growth at 0.01 µM (KM12 [6]): 105%
GI50 (SF-539; read-out: GI50): 1.44 µM
CC50 (SF-539; [13]): > 100 µM
TGI (SF-539; read-out: TGI): 44.7 µM
GI50 (SF-539; read-out: pGI50 (converted)): 1.45 µM
CC50 (SF-539; [14]): > 100 µM
TGI (SF-539; read-out: pTGI (converted)): 4.47 µM
growth at 0.1 µM (SF-268): 101%
growth at 0.1 µM (RXF 393 [7]): 85%
growth at 0.1 µM (NCI-H226): 93%
growth at 100 µM (K562): -24%
growth at 0.1 µM (T47D [8]): 98%
growth at 100 µM (KM12 [9]): 4%
GI50 (MCF7 [10]; read-out: GI50): 4.18 µM
LC50 (MCF7 [10]; read-out: LC50): > 100 µM
TGI (MCF7 [10]; read-out: TGI): > 100 µM
GI50 (MCF7 [10]; read-out: pGI50 (converted)): 4.17 µM
LC50 (MCF7 [10]; read-out: pLC50 (converted)): > 100 µM
TGI (MCF7 [10]; read-out: pTGI (converted)): > 100 µM
growth at 0.1 µM (RPMI-8226): 100%
growth at 100 µM (BT-549): 17%
growth at 1 µM (HCT-15 [11]): 35%
growth at 1 µM (786-0): 77%
growth at 1 µM (IGROV-1): 91%
GI50 (HCT-15 [12]; read-out: GI50): 0.559 µM
CC50 (HCT-15 [12]; [13]): 84.9 µM
TGI (HCT-15 [12]; read-out: TGI): 11.3 µM
GI50 (HCT-15 [12]; read-out: pGI50 (converted)): 0.562 µM
CC50 (HCT-15 [12]; [14]): 85.1 µM
TGI (HCT-15 [12]; read-out: pTGI (converted)): 11.2 µM

O=C(Nc1cccc(-n2cc(-c3ccncc3)c(-c3cc(O)cc(Cl)c3)n2)c1)Nc1ccc(Cl)c(C(F)(F)F)c1
growth at 0.01 µM (SF-295): 58%
growth at 1 µM (OVCAR-4): 105%
growth at 0.01 µM (CCRF-CEM): 97%
growth at 0.01 µM (MCF7 [1]): 90%
growth at 0.1 µM (SW-620): 98%
growth at 100 µM (RXF 393 [2]): -72%
growth at 1 µM (UO-31): 84%
growth at 0.1 µM (MDA-MB-435): 94%
growth at 100 µM (COLO 205): -77%
growth at 100 µM (LOX IMVI): -89%
growth at 0.01 µM (OVCAR-5): 98%
growth at 0.1 µM (OVCAR-3 [3]): 95%
growth at 100 µM (A498): -35%
growth at 100 µM (T47D [4]): -52%
growth at 1 µM (OVCAR-3 [5]): 91%
growth at 1 µM (Hs-578T): 87%
growth at 1 µM (SN12C): 97%
growth at 0.01 µM (KM12 [6]): 91%
GI50 (SF-539; read-out: GI50): 1.97 µM
CC50 (SF-539; [13]): 13.7 µM
TGI (SF-539; read-out: TGI): 44.9 µM
GI50 (SF-539; read-out: pGI50 (converted)): 1.95 µM
CC50 (SF-539; [14]): 13.8 µM
TGI (SF-539; read-out: pTGI (converted)): 4.47 µM
growth at 0.1 µM (SF-268): 93%
growth at 0.1 µM (RXF 393 [7]): 95%
growth at 0.1 µM (NCI-H226): 95%
growth at 100 µM (K562): -9%
growth at 0.1 µM (T47D [8]): 90%
growth at 100 µM (KM12 [9]): -74%
GI50 (MCF7 [10]; read-out: GI50): 2.53 µM
LC50 (MCF7 [10]; read-out: LC50): > 100 µM
TGI (MCF7 [10]; read-out: TGI): 85.4 µM
GI50 (MCF7 [10]; read-out: pGI50 (converted)): 2.63 µM
LC50 (MCF7 [10]; read-out: pLC50 (converted)): > 100 µM
TGI (MCF7 [10]; read-out: pTGI (converted)): 8.51 µM
growth at 0.1 µM (RPMI-8226): 101%
growth at 100 µM (BT-549): -93%
growth at 1 µM (HCT-15 [11]): 90%
growth at 1 µM (786-0): 84%
growth at 1 µM (IGROV-1): 113%
GI50 (HCT-15 [12]; read-out: GI50): 2.21 µM
CC50 (HCT-15 [12]; [13]): 50.6 µM
TGI (HCT-15 [12]; read-out: TGI): 60.1 µM
GI50 (HCT-15 [12]; read-out: pGI50 (converted)): 2.82 µM
CC50 (HCT-15 [12]; [14]): 60.3 µM
TGI (HCT-15 [12]; read-out: pTGI (converted)): 6.03 µM
